{
  "source": "PubChem BioAssay AID720689",
  "about": "(NMMLSC, 2013)",
  "experiment": "protein batch effect on Rab7 inhibitor curves, late-stage follow-up, mechanism study, biochemical, Rab7 wildtype, bead flow cytometry, two protein sources (AID 720689)",
  "details": "GST-Rab7 beads, Bodipy-FL-GTP binding",
  "note": "pEC50: −log10 of the molar value.",
  "data": [
    {"smiles": "CC1(C)Cc2c(sc(NC(=S)NC(=O)c3cccc(N=[N+]=[N-])c3)c2C(=O)O)CO1", "values": [
      {"measurement": "pEC50", "setting": "protein source 1", "result": 5.90},
      {"measurement": "pEC50", "setting": "protein source 2", "result": 5.91}
    ]},
    {"smiles": "CC1(C)Cc2c(sc(NC(=S)NC(=O)c3ccc(N=[N+]=[N-])cc3)c2C(=O)O)CO1", "values": [
      {"measurement": "pEC50", "setting": "protein source 1", "result": 6.66},
      {"measurement": "pEC50", "setting": "protein source 2", "result": 6.69}
    ]}
  ]
}
